Experimental data as given in US11795171B2, “Pyrrolotriazinones and imidazotriazinones as ubiquitin-specific protease 7 inhibitors” (Valo Health, Inc., priority 2014, dated 2023).

What follows are compounds tested against T1, USP7 (Homo sapiens (Human), UniProt Q93009) (assay: USP7 Assay A (Ubitquin-Rhodamine110 Assay)). Settings: Ub-Rh110 substrate 25 nM.
Format: biochemical
Description: Each assay was performed in a final volume of 15 μL in assay buffer containing 20 mM Tris-HCl (pH 8.0, (1M Tris-HCl, pH 8.0 solution; Corning 46-031-CM)), 1 mM GSH (L-Glutathione reduced: Sigma #G4251), 0.03% BGG ([…], Sigma, #G7516-25G), and 0.01% Triton X-100 (Sigma, #T9284-10L). Nanoliter quantities of either an 8-point or 10-point, 3-fold serial dilution in DMSO was pre-dispensed into assay plates (Perkin Elmer, ProxiPlate-384 F Plus, #6008269) for a final test concentration range of either 25 μM to 11 nM or 25 μM to 1.3 nM, respectively. The final concentration of the enzyme (USP7, construct USP7 (208-1102) 6*His, Viva Biotech) in the assay was […]. […] 5 μL of 2× enzyme was added to assay plates (pre-stamped with compound) preincubated with USP7 for 30 minutes and then 5 μL of 2×Ub-Rh110 was added to assay plates. Plates were incubated stacked for 20 minutes at room temperature before 5 μL of stop solution (final concentration of 10 mM citric acid in assay buffer (Sigma, #251275-500G)). Fluorescence was read on the Envision (Excitation at 485 nm and Emission at 535 nm; Perkin Elmer) or on the PheraSTAR (Excitation at 485 nm and Emission at 535 nm; BMG Labtech).
Data from USP7 Assays A and B were reported as percent inhibition (inh) compared with control wells based on the following equation: % inh=1−((FLU−AveLow)/(AveHigh−AveLow)) where FLU=measured Fluorescence (See Tables 2 and 3). AveLow=average Fluorescence of no enzyme control (n=16). AveHigh=average Fluorescence of DMSO control (n=16). IC50 values were determined by curve fitting of the standard 4 parameter logistic fitting algorithm included in the Activity Base software package: IDBS XE Designer Model205. Data is fitted using the Levenburg Marquardt algorithm. IC50 data from USP7 Assays A and B for the compounds of the invention can be found in Tables 2 and 3.

T1 sequence (Q93009 208-1102): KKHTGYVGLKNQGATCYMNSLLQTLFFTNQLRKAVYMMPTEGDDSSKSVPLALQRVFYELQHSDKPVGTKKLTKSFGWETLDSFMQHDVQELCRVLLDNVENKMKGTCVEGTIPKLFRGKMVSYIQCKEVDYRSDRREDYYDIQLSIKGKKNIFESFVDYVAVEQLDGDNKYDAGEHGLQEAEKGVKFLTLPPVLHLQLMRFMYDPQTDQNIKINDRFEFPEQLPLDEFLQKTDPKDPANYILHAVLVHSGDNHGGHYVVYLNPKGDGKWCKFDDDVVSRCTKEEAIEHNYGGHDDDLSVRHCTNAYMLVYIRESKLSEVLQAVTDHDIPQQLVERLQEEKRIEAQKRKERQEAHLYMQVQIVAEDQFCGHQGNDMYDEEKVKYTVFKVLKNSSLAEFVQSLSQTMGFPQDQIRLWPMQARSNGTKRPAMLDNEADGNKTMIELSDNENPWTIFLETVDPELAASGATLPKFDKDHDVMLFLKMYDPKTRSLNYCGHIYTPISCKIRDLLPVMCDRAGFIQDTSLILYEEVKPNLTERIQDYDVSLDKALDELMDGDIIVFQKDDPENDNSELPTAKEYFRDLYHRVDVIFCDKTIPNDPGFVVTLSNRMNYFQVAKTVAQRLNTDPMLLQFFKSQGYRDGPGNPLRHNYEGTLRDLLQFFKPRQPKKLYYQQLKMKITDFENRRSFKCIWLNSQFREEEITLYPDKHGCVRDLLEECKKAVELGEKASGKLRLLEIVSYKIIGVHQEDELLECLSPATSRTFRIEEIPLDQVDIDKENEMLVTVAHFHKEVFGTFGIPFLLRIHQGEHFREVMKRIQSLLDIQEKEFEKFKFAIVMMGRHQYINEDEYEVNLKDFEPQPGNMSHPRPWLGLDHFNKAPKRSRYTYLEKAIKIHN

**Q.** How did the IC50 turn out when `Cc1ccc(-c2ncc3c(=O)n(CC4(O)CCN(C(=O)C[C@@H](C)n5cccn5)CC4)cnn23)cc1` [Compound I-121, (R)-3-((1-(3-(1H-pyrazol-1-yl)butanoyl)-4-hydroxypiperidin-4-yl)methyl)-7-(p-tolyl)imidazo[5,1-f][1,2,4]triazin-4(3H)-one] was run?
**A.** > 10 µM

**Q.** For `Cc1ccc(-c2ncc3c(=O)n(CC4(O)CCN(C(=O)C[C@H](C)n5cccn5)CC4)cnn23)cc1` [Compound I-120, (S)-3-((1-(3-(1H-pyrazol-1-yl)butanoyl)-4-hydroxypiperidin-4-yl)methyl)-7-(p-tolyl)imidazo[5,1-f][1,2,4]triazin-4(3H)-one], which IC50 is on record?
**A.** 1 to 10 µM

**Q.** `Cc1ccc(C(=O)N2CCC(O)(Cn3cnn4c(-c5ccc(F)cc5)ncc4c3=O)CC2)cc1F` [Compound I-125, 3-((1-(3-fluoro-4-methylbenzoyl)-4-hydroxypiperidin-4-yl)methyl)-7-(4-fluorophenyl)imidazo[5,1-f][1,2,4]triazin-4(3H)-one] was tested. Which IC50 did it give?
**A.** > 10 µM

**Q.** Which IC50 does the source give for `O=C(c1cnc(C2CC2)o1)N1CCC(O)(Cn2cnn3c(-c4ccc(F)cc4)ncc3c2=O)CC1` [Compound I-122, 3-((1-(2-cyclopropyloxazole-5-carbonyl)-4-hydroxypiperidin-4-yl)methyl)-7-(4-fluorophenyl)imidazo[5,1-f][1,2,4]triazin-4(3H)-one] here?
**A.** 1 to 10 µM

**Q.** With `Cc1ccc(C(=O)N2CCC(O)(Cn3cnn4c(-c5ccc(F)cc5)ncc4c3=O)CC2)cc1` [Compound I-124, 7-(4-fluorophenyl)-3-((4-hydroxy-1-(4-methylbenzoyl)piperidin-4-yl)methyl)imidazo[5,1-f][1,2,4]triazin-4(3H)-one] as the compound, how does the IC50 read?
**A.** > 10 µM

**Q.** With `O=C(c1ccc(-n2cccn2)cc1)N1CCC(O)(Cn2cnn3c(-c4ccc(F)cc4)ncc3c2=O)CC1` [Compound I-123, 3-((1-(4-(1H-pyrazol-1-yl)benzoyl)-4-hydroxypiperidin-4-yl)methyl)-7-(4-fluorophenyl)imidazo[5,1-f][1,2,4]triazin-4(3H)-one] as the compound, how does the IC50 read?
**A.** 1 to 10 µM

**Q.** With `Cc1ccc(-c2ncc3c(=O)n(CC4(O)CCN(C(=O)c5ccc(F)cc5)CC4)cnn23)cc1` [Compound I-117, 3-((1-(4-fluorobenzoyl)-4-hydroxypiperidin-4-yl)methyl)-7-p-tolylimidazo[1,5-f][1,2,4]triazin-4(3H)-one] as the compound, how does the IC50 read?
**A.** 1 to 10 µM

**Q.** How did the IC50 turn out when `Cc1ccc(-c2ncc3c(=O)n(CC4(O)CCN(C(=O)CC(C)n5cccn5)CC4)cnn23)cc1` (racemic) [Compound I-119, 3-([4-Hydroxy-1-[3-(1H-pyrazol-1-yl)butanoyl]piperidin-4-yl]methyl)-7-(4-methylphenyl)-3H,4H-imidazo[4,3-f][1,2,4]triazin-4-one] was run?
**A.** 1 to 10 µM

**Q.** For `O=C(c1ccc(F)cc1)N1CCC(O)(Cn2cnn3c(-c4ccc(F)cc4)ncc3c2=O)CC1` [Compound I-116, 3-((1-(4-fluorobenzoyl)-4-hydroxypiperidin-4-yl)methyl)-7-(4-fluorophenyl)imidazo[5,1-f][1,2,4]triazin-4(3H)-one], which IC50 is on record?
**A.** > 10 µM

Each compound was assayed against T1, USP7 (assay: USP7 Assay B (Ubitquin-Rhodamine110 Assay)). Settings: Ub-Rh110 substrate 25 nM.
Format: biochemical

**Q.** For `O=C(c1cccc(-c2ccc3ncccc3c2)c1)N1CCC(O)(Cn2cnn3cccc3c2=O)CC1` [Compound I-21, 3-((4-hydroxy-1-(3-(quinolin-6-yl)benzoyl)piperidin-4-yl)methyl)pyrrolo[2,1-f][1,2,4]triazin-4(3H)-one], which IC50 is on record?
**A.** 1 to 10 µM

**Q.** For `CCC(Cc1ccccc1)C(=O)N1CCC(O)(Cn2cnn3cccc3c2=O)CC1` (stereo not drawn) [Compound I-60, 3-((1-(2-benzylbutanoyl)-4-hydroxypiperidin-4-yl)methyl)pyrrolo[2,1-f][1,2,4]triazin-4(3H)-one], which IC50 is on record?
**A.** 1 to 10 µM

**Q.** For `Cc1ccc(-c2cccc(C(=O)N3CCC(O)(Cn4cnn5cccc5c4=O)CC3)c2)s1` [Compound I-20, 3-((4-hydroxy-1-(3-(5-methylthiophen-2-yl)benzoyl)piperidin-4-yl)methyl)pyrrolo[2,1-f][1,2,4]triazin-4(3H)-one], which IC50 is on record?
**A.** > 10 µM
